We go through four molecules from patent US11413278B2, “Compounds and methods for promoting stress resistance” (priority 2015, dated 2022).

The test system of data set [1] is PC12 cells expressing poly(Q)103-Htt-EGFP. In words: Poly(Q) toxicity & viability analysis (cellular model of Huntington's disease). Format: cell-based, rat. As to conditions: for M = Huntington's poly-Q toxicity attenuation: score; for K = Huntington's poly-Q toxicity attenuation: summary score. The procedure: Viability assays were performed as described before (Aiken et al., 2004). PC12 cells that stably express the inducible poly(Q)103-Htt-EGFP were grown in culture. […] Cell viability was analyzed 48 hrs later by measuring ATP content with CellTiter-Glo.
Toxic protein aggregation is a key feature of many age-related neurodegenerative diseases, including Alzheimer's and Huntington's disease (Caughey and Lansbury, 2003; Ross and Poirier, 2004). A number of animal models (Phillips et al., 2009) and cell models (Schlachetzki et al., 2013) have been established to study these diseases. For this purpose, PC12 rat pheochromocytoma cells display neuronal features and produce neurotransmitters and have been used extensively to study neuronal phenotypes, including synaptic transmission and neurological diseases. […] In this model, induced expression of poly(Q)103-Htt-EGFP could lead to the formation of aggregates and exert substantial toxicity in cells.

Another data set deals with C. elegans. The data set is described as follows: C. elegans lifespan assays (liquid and plate). Format: in vivo, Caenorhabditis elegans. The note with it: for ILS at 60 µM / ILS at 66 µM: Caenorhabditis elegans; for Extension of C. elegans' lifespan (qualitative): in at least 3 to 4 trials, group range ~10% to ~50%; for O = Life span- extending scores in worms: score scale 0 to 2, 4 to 6 independent trials; for M = Lifespan-extending scores in worms: summary score.

For data set [2], the system named is phosphorylated γH2A.X and TP53BP1. In words: DNA damage marker analysis (immuno-staining). As to conditions: for activity at 10 µM: Homo sapiens, WI-38, 24 h; for P = Potential DNA-damaging / R = Potential DNA damaging: human, 24 h. The procedure:
WI-38 cells were seeded on 96-well plates and cultured for 24 hrs and then incubated with small molecules for another 24 hrs. As the positive control to damage DNA, H2O2 was supplemented at 700 μM final concentration for the last 3 hrs. Cells were washed with phosphate-buffered saline (PBS), fixed with 4% paraformaldehyde and then blocked with 5% normal goat serum (Cell Signaling), plus 0.3% Triton X-100, for 1 hr. Primary antibody cocktail (rabbit anti-phospho-histone γH2A.X (Ser-139), 1:100; anti-phospho-TP53BP1 (Ser-1778), 1:100), prepared in 1% BSA and 0.3% Triton X-100/PBS, was then introduced and incubated overnight at 4 C. Next day, samples were washed with PBS and further incubated with fluorophore-conjugated secondary antibody (1:1,000) for 1 hr in the dark. Samples were then washed and incubated with DAPI dye (Life Technologies) (4 μg/ml final concentration) for the last 10 minutes. Images were collected on an INCell Analyzer 2000 (GE) and analyzed with the Developer software.
WI-38 cells were seeded (˜8,000 cells per well) on 96-well plates and cultured for 24 hrs and then incubated with small molecules for another 24 hrs. Doxorubicin (300 nM, 24 hrs) and H2O2 (700 μM, 3 hrs) were also introduced as the positive controls to damage DNA. Cells were washed with phosphate-buffered saline (PBS), fixed with 4% paraformaldehyde for 30 min and then blocked with 5% normal goat serum (Cell Signaling) and 0.3% Triton X-100 for 1 hr. Primary antibody cocktail (Cell Signaling, rabbit anti-phospho-histone γH2A.X (Ser-139), 1:100; anti-phospho-TP53BP1 (Ser-1778), 1:100) was prepared in PBS with 1% BSA and 0.3% Triton X-100 and incubated overnight at 4° C. Next day, samples were washed with PBS and further incubated with fluorophore-conjugated secondary antibody (1:1,000) for 1 hr in dark. Samples were then washed and incubated with DAPI dye (Life Technologies) (4 μg/ml final concentration) for 30 minutes. Images were collected on the INCell Analyzer 2000 (10× objective) and analyzed with the Developer Toolbox.

In another data set the test system is FOXO3. The data set is described as follows: FOXO3 siRNA knockdown: dependency for H2O2-resistance. In kind it is cell-based, human. Here is the method: For qPCR analysis, WI-38 cells were treated with small molecules (at 10 μM) (biological quadruplicates) for 24 hrs and processed for RNA isolation and reverse transcription (RT) with the Cells-to-Ct Kit (Life Technologies), following manufacturer's instructions. RT products were diluted with H2O and used for qPCR analysis on an ABI 7300 system (Life Technologies) (technical triplicates). Relative expression levels of target genes were normalized to the genes B2M, PPIA and GAPDH. To knock down the expression of FOXO3 or NRF2, WI-38 cells were transfected, using the RNAiMAX reagents (Life Technologies), with siRNA oligos (at 10 nM final concentration, 10 ml culture medium) for FOXO3 (Life Technologies) or NRF2 (Integrated DNA Technologies) on 10-cm petri dishes for 36 hrs, and then detached and aliquoted onto 96-well (for qPCR analysis) or 384-well plates (for H2O2-stress treatment). ˜24 hrs later, small molecules were introduced and incubated with cells for 24 hrs. Cells were then either processed with the Cells-to-Ct Kit to prepare RT products for qPCR analysis or subjected to H2O2 (700 μM) for 3 hrs and assayed for viability. The knockdown efficiency of FOXO3 or NRF2 was checked at 36 hrs post-transfection and at the end as well. […]
Applicants used siRNA to knock down FOXO3 expression by ˜70% in an attempt to identify whether the activation of these genes depends on activity of FOXO3 and/or NRF2. […] We used siRNA to knock down FOXO3 expression by ˜60% to 70% (FIG. 3; see data in Table 6). […] (Given the caveat that FOXO3 was not fully knocked down, partial dependency was scored when the H2O2-resistance capacity was reduced by at least 25% but less than 50% upon siRNA knockdown). At least for Gr-7A and Gr-7C, which are structurally related, the observed FOXO3-dependency for H2O2-resistance is consistent with their strong effects to induce FOXO3 target genes (Tables 1a-1f, Table 6, & Table 15), including SOD2 and GADD45A.

[3] abbreviates: in liquid, wild type, with FuDR, 1.0 × 10^9 bacteria/ml, read-out: relative change of mean lifespan vs control, Trial 1.
Where [4] appears, read: in liquid, wild type, with FuDR, 2.5 × 10^9 bacteria/ml, read-out: relative change of mean lifespan vs control, Trial 2.
The mark [5] stands for this setting: on plate, CF512 temperature-sensitive sterile animals, without FuDR, 2.0 × 10^10 bacteria/ml, read-out: relative change of mean lifespan vs control, Trial 3.
The mark [6] stands for this setting: Assay 2(z), 1.0 × 10^9 bacteria/ml, wild type + FuDR (2012 July), read-out: Lifespan assay in liquid.
[7] abbreviates: Assay 3(aa), 2.5 × 10^9 bacteria/ml, wild type + FuDR, read-out: Lifespan assay in liquid.
Where [8] appears, read: Assay 4(ab), 2.0 × 10^10 bacteria/ml, CF512 worms, no FuDR, read-out: Lifespan assay on plates.
Where [9] appears, read: read-out: Experiment 1, H2A.X-P DNA damage foci staining (no H2O2 stress treatment), at 10 uM.
[10] abbreviates: read-out: Experiment 2, H2A.X-P DNA damage foci staining (no H2O2 stress treatment), at 10 uM.
[11] abbreviates: read-out: Experiment 2, H2A.X-P DNA damage foci staining (under H2O2 stress treatment), at 10 uM.
The mark [12] stands for this setting: read-out: Experiment 2, TP53BP1-P DNA damage foci staining (no H2O2 stress treatment), at 10 uM.
Setting [13] is: read-out: Experiment 2, TP53BP1-P DNA damage foci staining (under H2O2 stress treatment), at 10 uM.
Where [14] appears, read: Assay 5(ac), 1.0 × 10^11 bacteria/ml, CF512 worms, no FuDR, read-out: Lifespan assay on plates.

Read-outs that look alike come from different tables or passages of the source.

Consider `O=C(Nc1cccc(C(F)(F)F)c1)c1ccc([N+](=O)[O-])o1` [Gr-1E], for which the “M = Huntington's poly-Q toxicity attenuation” value in data set [1] came to 0. The “K = Huntington's poly-Q toxicity attenuation” value in data set [1] was 0. In addition, the values for the ILS at 60 µM with C. elegans (setting [3]), with C. elegans (setting [4]) and with C. elegans (setting [5]) were 17.4%, 6.3% and 13.8%, respectively. The ILS at 66 µM is 17.4% in the data set on C. elegans (setting [6]), 6.3% in the data set on C. elegans (setting [7]) and 13.8% in the data set with C. elegans (setting [8]). For the same molecule, the “Extension of C. elegans' lifespan (qualitative)” value in the data set with C. elegans is “could extend animal's lifespan”. In the data set on C. elegans, the “O = Life span- extending scores in worms” value is given as 2 (2 for observed in more than 2 trials). For the same molecule, in the data set on C. elegans, the “M = Lifespan-extending scores in worms” value is given as 2 (2 for observed in more than 2 trials). The activity at 10 µM in data set [2] (setting [9]) amounted to 162%; in data set [2] (setting [10]), 107%; in data set [2] (setting [11]), 151%; in data set [2] (setting [12]) it was 289%; in data set [2] (setting [13]), 475%. Also, the “P = Potential DNA-damaging” value in data set [2] is listed as 0. Further, the “R = Potential DNA damaging” value in data set [2] is 0. The “I = FOXO3-dependency for H2O2-resistance” value in the data set on FOXO3 (score) and with FOXO3 (summary score) was 0 throughout.
As for `Cc1ccc(NC(=O)c2ccc([N+](=O)[O-])o2)cc1C` [Gr-1F], the “M = Huntington's poly-Q toxicity attenuation” value in data set [1] is reported as 0. Besides, the “K = Huntington's poly-Q toxicity attenuation” value in data set [1] turned out to be 0. The ILS at 60 µM in the data set on C. elegans (setting [3]) was 22.3%; with C. elegans (setting [4]) it was 0.6%; with C. elegans (setting [5]) it was 11.3%. The values for the ILS at 66 µM in the data set on C. elegans (setting [6]), with C. elegans (setting [7]) and with C. elegans (setting [8]) were 22.3%, 0.6% and 11.3%, respectively. Also, the “O = Life span- extending scores in worms” value in the data set with C. elegans is recorded as 1 (1 for lifespan extension observed in 2 trials). For the same molecule, the “M = Lifespan-extending scores in worms” value in the data set on C. elegans is 1 (1 for lifespan extension observed in 2 trials). The activity at 10 µM in data set [2] (setting [9]) was 219%; in data set [2] (setting [10]) it was 378%; in data set [2] (setting [11]) it was 127%; in data set [2] (setting [12]), 460%; in data set [2] (setting [13]), 558%. For the same molecule, in data set [2], the “P = Potential DNA-damaging” value is listed as 1. Besides, in data set [2], the “R = Potential DNA damaging” value was 1. Further, the “FOXO3-dependency for H2O2-resistance, at 10 uM (experiment 3) - with & without H2O2” value in the data set on FOXO3 (10 uM, experiment 3, with & without H2O2) was “YES”. For the same molecule, the “FOXO3-dependency for H2O2-resistance (experiment 3)” value with FOXO3 (10 uM, with & without H2O2, FOXO3 knockdown in WI-38 cells, YES = resistance reduced by at least 50%, partial = 25% to 50%) was “YES”. Also, the “I = FOXO3-dependency for H2O2-resistance” value in the data set with FOXO3 (score) and in the data set with FOXO3 (summary score) was 0 throughout.
Consider `O=C(Nc1ccc(Cl)c(Cl)c1)c1ccc([N+](=O)[O-])o1` [Gr-1G], for which the “M = Huntington's poly-Q toxicity attenuation” value in data set [1] was 0. In data set [1], the “K = Huntington's poly-Q toxicity attenuation” value is on record as 0. Moreover, the ILS at 60 µM was found to be 1.3% with C. elegans (setting [3]); 10.2% in the data set on C. elegans (setting [4]); 5.8% in the data set with C. elegans (on plate, CF512 temperature-sensitive sterile animals, without FuDR, 1.0 × 10^11 bacteria/ml, read-out: relative change of mean lifespan vs control, Trial 4); 24.7% in the data set with C. elegans (setting [5]). Moreover, the ILS at 66 µM with C. elegans (setting [6]) was 1.3%; with C. elegans (setting [7]), 10.2%; with C. elegans (setting [8]), 24.7%; in the data set on C. elegans (setting [14]), 5.8%. Further, the “O = Life span- extending scores in worms” value in the data set with C. elegans is 1 (1 for lifespan extension observed in 2 trials). In the data set with C. elegans, the “M = Lifespan-extending scores in worms” value is 1 (1 for lifespan extension observed in 2 trials). Besides, the activity at 10 µM in data set [2] (setting [9]) turned out to be 150%; in data set [2] (setting [10]), 179%; in data set [2] (setting [11]), 63.3%; in data set [2] (setting [12]), 256%. Also, the “P = Potential DNA-damaging” value in data set [2] stood at 0. Besides, the “R = Potential DNA damaging” value in data set [2] was 0. Besides, the “I = FOXO3-dependency for H2O2-resistance” value with FOXO3 (score) and in the data set with FOXO3 (summary score) was 0 in each case.
Take `O=[N+]([O-])c1ccccc1S(=O)(=O)Nc1cccc2cccnc12` [Gr-3A]: the “M = Huntington's poly-Q toxicity attenuation” value in data set [1] worked out at 0. Also, in data set [1], the “K = Huntington's poly-Q toxicity attenuation” value is on record as 0. Also, the ILS at 66 µM in the data set with C. elegans (setting [6]) came to 33.4%; in the data set with C. elegans (setting [7]), 14.2%; with C. elegans (setting [8]), 16.3%; in the data set with C. elegans (setting [14]), 8.4%. Moreover, in the data set on C. elegans, the “Extension of C. elegans' lifespan (qualitative)” value is given as “could extend animal's lifespan”. In the data set on C. elegans, the “O = Life span- extending scores in worms” value is given as 2 (2 for observed in more than 2 trials). The “M = Lifespan-extending scores in worms” value in the data set with C. elegans is on record as 2 (2 for observed in more than 2 trials). Further, the activity at 10 µM in data set [2] (setting [9]) was 139%; in data set [2] (setting [10]), 338%; in data set [2] (setting [11]), 143%; in data set [2] (setting [12]), 334%; in data set [2] (setting [13]), 66.1%. Further, the “P = Potential DNA-damaging” value in data set [2] was 1. Moreover, in data set [2], the “R = Potential DNA damaging” value is listed as 1. For the same molecule, the “I = FOXO3-dependency for H2O2-resistance” value in the data set on FOXO3 (score) and in the data set on FOXO3 (summary score) was 0 in each case.
